Test [1] has as its target Cathepsin B (Homo sapiens, UniProt P07858). As to the kind of experiment: Inhibitory activity against recombinant human cathepsin B (cat B) expressed in baculovirus.
The target in test [2] is Procathepsin L (Homo sapiens, UniProt P07711). The experiment in a line: Inhibitory activity against recombinant human cathepsin L (cat L) expressed in baculovirus.
Test [3] deals with Cathepsin S (Homo sapiens, UniProt P25774). The experiment in a line: Inhibitory activity against recombinant human cathepsin S (cat S) expressed in baculovirus.

The term IC50 denotes the concentration needed to halve the response being measured.

Cathepsin S, sequence (P25774 whole entry): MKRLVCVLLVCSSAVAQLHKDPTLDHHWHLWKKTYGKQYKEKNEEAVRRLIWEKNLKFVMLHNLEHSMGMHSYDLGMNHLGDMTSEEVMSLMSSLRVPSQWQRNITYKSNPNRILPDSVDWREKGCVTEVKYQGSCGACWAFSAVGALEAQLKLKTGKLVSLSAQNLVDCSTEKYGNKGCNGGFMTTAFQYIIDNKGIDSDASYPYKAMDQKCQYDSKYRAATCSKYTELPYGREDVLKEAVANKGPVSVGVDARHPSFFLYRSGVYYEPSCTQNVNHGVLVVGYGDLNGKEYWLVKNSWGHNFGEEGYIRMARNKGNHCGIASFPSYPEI
Procathepsin L, sequence (P07711 whole entry): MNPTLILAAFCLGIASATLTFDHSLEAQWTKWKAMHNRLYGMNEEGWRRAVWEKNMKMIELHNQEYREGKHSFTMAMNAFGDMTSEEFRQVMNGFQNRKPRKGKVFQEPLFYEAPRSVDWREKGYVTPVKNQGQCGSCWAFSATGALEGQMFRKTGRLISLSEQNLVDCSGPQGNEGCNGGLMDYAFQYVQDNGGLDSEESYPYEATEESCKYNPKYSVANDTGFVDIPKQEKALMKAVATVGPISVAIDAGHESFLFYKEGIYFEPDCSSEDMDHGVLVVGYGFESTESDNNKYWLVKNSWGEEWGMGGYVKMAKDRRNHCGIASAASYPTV

As for `Cc1cccc(C[C@H](NC(=O)c2ccc(Cl)c(Cl)c2)C(=O)NCC#N)c1`, the IC50 in test [1] worked out at 31.3 nM.
Still for that read-out and setting: as for `N#CCNC(=O)[C@H](Cc1cccc(C(=N)N)c1)NC(=O)C(c1ccccc1)c1ccccc1`, the figure is over 1000 nM; as for `CCCCC(=O)N[C@@H](Cc1cccc(C)c1)C(=O)NCC#N`, 3000 nM.
Same read-out and setting: as for `Cc1cccc(C[C@H](NC(=O)c2ccc(F)cc2F)C(=O)N[C@H](C#N)CCCc2cccc(C(=O)O)c2)c1`, the figure is 110 nM; as for `Cc1cccc(C[C@H](NC(=O)c2ccc(F)cc2F)C(=O)NCC#N)c1`, 591 nM; as for `Cc1cccc(C[C@H](NC(=O)C(c2ccccc2)c2ccccc2)C(=O)N[C@H](C#N)CCOc2cccc(C(=O)O)c2)c1`, 138 nM.
For the compound `Cc1cccc(C[C@H](NC(=O)C(c2ccccc2)c2ccccc2)C(=O)N[C@H](C#N)COCc2ccccc2)c1`, the half-inhibitory concentration (IC50) in test [1] was 10.2 nM.
`Cc1cccc(C[C@H](NC(=O)c2ccc(Cl)cc2F)C(=O)N[C@H](C#N)COCc2cccc(C(=O)O)c2)c1`: in test [1], the IC50 was 2 nM.
On the same count and under the same terms, then `N#CCNC(=O)[C@H](Cc1ccc(I)cc1)NC(=O)C(c1ccccc1)c1ccccc1`, with over 1000 nM.
Same read-out and setting: as for `N#CCNC(=O)[C@H](Cc1cccc(Cl)c1)NC(=O)C(c1ccccc1)c1ccccc1`, the figure is 130 nM; as for `COC(=O)c1cccc(COC[C@@H](C#N)NC(=O)[C@H](Cc2cccc(C)c2)NC(=O)C(c2ccccc2)c2ccccc2)c1`, 47 nM; as for `N#CCNC(=O)[C@H](Cc1cccc(I)c1)NC(=O)C(c1ccccc1)c1ccccc1`, 121 nM.
Consider `Cc1cccc(C[C@H](NC(=O)c2ccc(F)cc2F)C(=O)N[C@H](C#N)COCc2ccccc2)c1`, for which the IC50 in test [1] amounted to 42 nM.
The same measure, in the same setting: as for `Cc1cccc(C[C@H](NC(=O)c2ccc(Cl)cc2F)C(=O)NCC#N)c1`, the figure is 72 nM.
On the same count and under the same terms, as for `N#CCNC(=O)[C@H](Cc1ccccc1)NC(=O)OCc1ccccc1`, the figure is 62000 nM; as for `Cc1cccc(C[C@H](NC(=O)c2ccccc2)C(=O)N[C@H](C#N)COCc2cccc(C(=O)O)c2)c1`, 9.4 nM; as for `Cc1cccc(C[C@H](NC(=O)C(c2ccccc2)c2ccccc2)C(=O)N[C@H](C#N)COCc2ccc(C(=O)O)cc2)c1`, 30.7 nM.
On the same count and under the same terms, then `Cc1cccc(C[C@H](NC(=O)C(c2ccccc2)c2ccccc2)C(=O)N[C@H](C#N)COCc2cccc(CO)c2)c1`, with 29 nM; and `Cc1cccc(C[C@H](NC(=O)c2ccc(Cl)cc2F)C(=O)N[C@H](C#N)COCc2ccccc2)c1`, with 16.9 nM; and `CCCCC(=O)N[C@@H](Cc1cccc(C)c1)C(=O)N[C@H](C#N)COCc1cccc(C(=O)O)c1`, with 35.7 nM.
`Cc1cccc(C[C@H](NC(=O)c2ccc(Cl)cc2)C(=O)NCC#N)c1`: the IC50 in test [1] is 308 nM.
Consider `Cc1cccc(C[C@H](NC(=O)C(c2ccccc2)c2ccccc2)C(=O)N[C@H](C#N)CC#Cc2cccc(C(=O)O)c2)c1`, for which the IC50 in test [1] stood at 5.6 nM.
Same read-out and setting: as for `Cc1cc(C)cc(C[C@H](NC(=O)C(c2ccccc2)c2ccccc2)C(=O)NCC#N)c1`, the figure is 11.9 nM.
On the same count and under the same terms, then `CCc1cccc(C[C@H](NC(=O)C(c2ccccc2)c2ccccc2)C(=O)NCC#N)c1`, with 136 nM.
Regarding `N#CCNC(=O)[C@H](Cc1ccccc1)NC(=O)Cc1ccccc1`, the 50% inhibitory concentration (IC50) worked out at 170 nM in test [2], 226 nM in test [3] and 34000 nM in test [1].
For `N#CCNC(=O)[C@H](Cc1ccccc1)NC(=O)C(c1ccccc1)c1ccccc1` the same measures were 31 nM, 48 nM and 496 nM.
For the compound `Cc1cccc(C[C@H](NC(=O)c2ccccc2)C(=O)NCC#N)c1`, the IC50 in test [1] was found to be 1900 nM.
Same read-out and setting: as for `Cc1cccc(C[C@H](NC(=O)C(c2ccccc2)c2ccccc2)C(=O)N[C@H](C#N)CCCc2cccc(C(=O)O)c2)c1`, the figure is 18 nM.
On the same count and under the same terms, as for `Cc1cncc(C[C@H](NC(=O)C(c2ccccc2)c2ccccc2)C(=O)NCC#N)c1`, the figure is 652 nM.
For `Cc1cc(CN)cc(C[C@H](NC(=O)C(c2ccccc2)c2ccccc2)C(=O)NCC#N)c1`, in test [1], the half-inhibitory concentration (IC50) came to 358 nM.

The values are drawn from ChEMBL document CHEMBL1134316, “Identification of dipeptidyl nitriles as potent and selective inhibitors of cathepsin B through structure-based drug design” (J Med Chem, 2001).
